Laboratory results: ChEMBL document CHEMBL1143404, “New plasmid-mediated fluoroquinolone efflux pump, QepA, found in an Escherichia coli clinical isolate” (2007)
≈ marks a conversion by molar mass, not a printed value.

How the values were obtained:
Format in all cases: functional
Escherichia coli [1] = assay: Antimicrobial activity against Escherichia coli KAM32 pSTVdeltaqepA containing disrupted qepA gene by agar dilution method
Escherichia coli [2] = assay: Antimicrobial activity against Escherichia coli KAM32 pSTV28 containing chloramphenicol-resistant vector by agar dilution method
Escherichia coli [3] = assay: Antimicrobial activity against multidrug-resistant Escherichia coli C316 pHPA containing mutated GyrA gene by agar dilution method
Escherichia coli [4] = assay: Antimicrobial activity against Escherichia coli KAM32 pHPA containing mutated GyrA gene by agar dilution method
Escherichia coli [5] = assay: Antimicrobial activity against Escherichia coli KAM32 expressing deltaacrB ydhE hsd gene by agar dilution method
Escherichia coli [6] = assay: Ratio of MIC for Escherichia coli KAM32 pSTVqepA mutant to MIC for Escherichia coli KAM32 pSTV28 mutant
Escherichia coli [7] = assay: Antimicrobial activity against Escherichia coli KAM32 pSTVqepA containing qepA gene ligated to pSTV28 plasmid by agar dilution method

Compound C[C@H]1COc2c(N3CCN(C)CC3)c(F)cc3c(=O)c(C(=O)O)cn1c23.C[C@H]1COc2c(N3CCN(C)CC3)c(F)cc3c(=O)c(C(=O)O)cn1c23.O [LEVOFLOXACIN] has an MIC (Escherichia coli [1]) of 0.004 µg/mL, an MIC (Escherichia coli [2]) of 0.004 µg/mL and an MIC (Escherichia coli [3]) of 32 µg/mL.
CCn1cc(C(=O)O)c(=O)c2cc(F)c(N3CCNC(C)C3)c(F)c21 (configuration not stated) [LOMEFLOXACIN] gave an MIC (Escherichia coli [4]) of 0.064 µg/mL (≈ 0.182 µM), an MIC (Escherichia coli [1]) of 0.032 µg/mL (≈ 0.0911 µM) and an MIC (Escherichia coli [2]) of 0.032 µg/mL (≈ 0.0911 µM). The MIC (Escherichia coli [3]) was greater than 128 µg/mL, the MIC (Escherichia coli [5]) was 0.032 µg/mL (≈ 0.0911 µM) and the Ratio (Escherichia coli [6]) was 2. It also gave an MIC (Escherichia coli [7]) of 0.064 µg/mL (≈ 0.182 µM).
COc1c(N2C[C@@H]3CCCN[C@@H]3C2)c(F)cc2c(=O)c(C(=O)O)cn(C3CC3)c12 [MOXIFLOXACIN] gave an MIC (Escherichia coli [4]) of 0.016 µg/mL (≈ 0.0399 µM), an MIC (Escherichia coli [1]) of 0.002 µg/mL (≈ 0.00498 µM) and an MIC (Escherichia coli [2]) of 0.002 µg/mL (≈ 0.00498 µM). The MIC (Escherichia coli [3]) was 32 µg/mL (≈ 79.7 µM), the MIC (Escherichia coli [5]) was 0.002 µg/mL (≈ 0.00498 µM) and the Ratio (Escherichia coli [6]) was 8. The MIC (Escherichia coli [7]) was 0.016 µg/mL (≈ 0.0399 µM).
In the case of CCn1cc(C(=O)O)c(=O)c2ccc(C)nc21 [NALIDIXIC ACID], the MIC (Escherichia coli [4]) was 1 µg/mL (≈ 4.31 µM), the MIC (Escherichia coli [1]) was 1 µg/mL (≈ 4.31 µM) and the MIC (Escherichia coli [2]) was 1 µg/mL (≈ 4.31 µM). It also gave an MIC (Escherichia coli [3]) greater than 128 µg/mL, an MIC (Escherichia coli [5]) of 1 µg/mL (≈ 4.31 µM) and a Ratio (Escherichia coli [6]) of 2. For the same compound, the MIC (Escherichia coli [7]) was 2 µg/mL (≈ 8.61 µM).
For CCn1cc(C(=O)O)c(=O)c2cc(F)c(N3CCNCC3)cc21 [NORFLOXACIN], the MIC (Escherichia coli [4]) was 0.25 µg/mL (≈ 0.783 µM), the MIC (Escherichia coli [1]) was 0.016 µg/mL (≈ 0.0501 µM) and the MIC (Escherichia coli [2]) was 0.016 µg/mL (≈ 0.0501 µM). For the same compound, the MIC (Escherichia coli [3]) was greater than 128 µg/mL, the MIC (Escherichia coli [5]) was 0.016 µg/mL (≈ 0.0501 µM) and the Ratio (Escherichia coli [6]) was 64. For the same compound, the MIC (Escherichia coli [7]) was 1 µg/mL (≈ 3.13 µM).
With C[C@H]1COc2c(C3(N)CC3)c(F)cc3c(=O)c(C(=O)O)cn1c23 [PAZUFLOXACIN] the MIC (Escherichia coli [4]) was 0.016 µg/mL (≈ 0.0503 µM), the MIC (Escherichia coli [1]) was 0.004 µg/mL (≈ 0.0126 µM) and the MIC (Escherichia coli [2]) was 0.004 µg/mL (≈ 0.0126 µM). For the same compound, the MIC (Escherichia coli [3]) was 16 µg/mL (≈ 50.3 µM), the MIC (Escherichia coli [5]) was 0.004 µg/mL (≈ 0.0126 µM) and the Ratio (Escherichia coli [6]) was 4. The MIC (Escherichia coli [7]) was 0.016 µg/mL (≈ 0.0503 µM).
Work on CC/N=c1\cc2oc3cc(NCC)c(C)cc3c(-c3ccccc3C(=O)OCC)c-2cc1C.Cl [RHODAMINE 6G HYDROCHLORIDE] yielded an MIC (Escherichia coli [4]) of 4 µg/mL, an MIC (Escherichia coli [1]) of 4 µg/mL and an MIC (Escherichia coli [2]) of 4 µg/mL. For the same compound, the MIC (Escherichia coli [3]) was greater than 128 µg/mL, the MIC (Escherichia coli [5]) was 4 µg/mL and the Ratio (Escherichia coli [6]) was 1. For the same compound, the MIC (Escherichia coli [7]) was 4 µg/mL.
In the case of CCCCCCCCCCCCOS(=O)(=O)[O-].[Na+] [SODIUM LAURYL SULFATE], the MIC (Escherichia coli [4]) was 128 µg/mL, the MIC (Escherichia coli [1]) was greater than 128 µg/mL and the MIC (Escherichia coli [2]) was 128 µg/mL. For the same compound, the MIC (Escherichia coli [5]) was 128 µg/mL, the Ratio (Escherichia coli [6]) was 1 and the MIC (Escherichia coli [7]) was 128 µg/mL.
With C[C@@H]1CN(c2c(F)c(N)c3c(=O)c(C(=O)O)cn(C4CC4)c3c2F)C[C@H](C)N1 [SPARFLOXACIN] the MIC (Escherichia coli [4]) was 0.002 µg/mL (≈ 0.0051 µM), the MIC (Escherichia coli [1]) was 0.001 µg/mL (≈ 0.00255 µM) and the MIC (Escherichia coli [2]) was 0.001 µg/mL (≈ 0.00255 µM). It also gave an MIC (Escherichia coli [3]) of 16 µg/mL (≈ 40.8 µM), an MIC (Escherichia coli [5]) of 0.001 µg/mL (≈ 0.00255 µM) and a Ratio (Escherichia coli [6]) of 2. The MIC (Escherichia coli [7]) was 0.002 µg/mL (≈ 0.0051 µM).
With CN(C)[C@@H]1C(O)=C(C(N)=O)C(=O)[C@@]2(O)C(O)=C3C(=O)c4c(O)cccc4[C@@](C)(O)[C@H]3C[C@@H]12 [TETRACYCLINE] the MIC (Escherichia coli [4]) was 0.25 µg/mL (≈ 0.563 µM), the MIC (Escherichia coli [1]) was 0.125 µg/mL (≈ 0.281 µM) and the MIC (Escherichia coli [2]) was 0.25 µg/mL (≈ 0.563 µM). It also gave an MIC (Escherichia coli [3]) greater than 128 µg/mL, an MIC (Escherichia coli [5]) of 0.25 µg/mL (≈ 0.563 µM) and a Ratio (Escherichia coli [6]) of 1. It also gave an MIC (Escherichia coli [7]) of 0.25 µg/mL (≈ 0.563 µM).
Compound NC1CCN(c2nc3c(cc2F)c(=O)c(C(=O)O)cn3-c2ccc(F)cc2F)C1 (configuration not stated) [TOSUFLOXACIN] has an MIC (Escherichia coli [4]) of 0.032 µg/mL (≈ 0.0791 µM), an MIC (Escherichia coli [1]) of 0.002 µg/mL (≈ 0.00495 µM) and an MIC (Escherichia coli [2]) of 0.002 µg/mL (≈ 0.00495 µM). The MIC (Escherichia coli [3]) was greater than 128 µg/mL, the MIC (Escherichia coli [5]) was 0.002 µg/mL (≈ 0.00495 µM) and the Ratio (Escherichia coli [6]) was 16. The MIC (Escherichia coli [7]) was 0.032 µg/mL (≈ 0.0791 µM).
